# Experimental data from patent US7985745B2, “Method for pain treatment” (Abbott Laboratories, priority 2006, dated 2011).
# Read-outs that look alike come from different tables or passages of the source.
# Legend:
# inflammatory pain = test: Carrageenan-induced thermal hyperalgesia, hotbox assay; type: in vivo; conditions: 90 minutes after carrageenan, tested 30 minutes after dosing
# Protocol: To assess the effectiveness of representative compounds of the invention against acute model inflammatory pain, animals were tested in an acute model of carrageenan-induced thermal hyperalgesia (see for example, Honore, et al. Behavioural Brain Research 167 (2006) 355-364; Porreca, et al. Journal of Pharmacology and Experimental Therapeutics (2006) vol. 318 pp. 195-205). Carrageenan was injected into the test paw of the animal, and after 90 minutes, the test drug was administered by intraperitoneal dosing. The effect on thermal hyperalgesia was assessed in a hotbox assay which was done 30 minutes after the intraperitoneal dosing of the test drug, and the MPE (maximal percent effect) reported by comparison to the control paw (not injected with carrageenan), according to 100 times the withdrawal latency of the carrageenan injected paw (in seconds) divided by the withdrawal latency of the control (not injected with carrageenan) paw.
# histamine H4 receptor [1] = target: T1, histamine H4 receptor (Homo sapiens, UniProt Q9H3N8); test: FLIPR Ca2+ assay in HEK-293 cells stably expressing histamine H4 receptor and Gαqi5; type: cell-based; conditions: Kb for antagonists and inverse agonists, EC50 for partial agonists; block of histamine-induced Ca2+ increase
# T1 construct: expressed in transfected cells; host or cells: HEK-293 cells, transient transfection with pCINeo vector; membranes
# Text: Histamine H4 receptors from mammalian species have been cloned. Methods to clone, express, and assess the potency and functional activity of such cloned genes are well known to those skilled in the art of molecular biology. […] Before testing, cells are loaded with a Ca^+2 sensitive fluorescent dye, in this case Fluo-4. In the case of partial agonist or agonist ligands, addition of compound to the cells leads to the increase in intracellular Ca^+2 which is detected by FLIPR (Fluorescence Imaging Plate Reader; Molecular Devices, Sunnyvale, Calif.) technology. […] The fluorescence intensities measured before addition of the test compound are subtracted from the fluorescence intensities at later time points. Peak response values determined at each concentration of ligand are expressed as a percentage of the response obtained with the full agonist histamine. Concentration versus response data are analyzed to obtain compound potency as Kb values for antagonists and inverse agonists and as EC50 values for partial agonists.
# neuropathic pain = test: Chung model: L5/L6 spinal nerve ligation, mechanical allodynia by von Frey filaments; type: in vivo, rat; conditions: 100 micromole/kg i.p., 30 minutes before testing
# Protocol: Animals were prepared for testing, by use of a surgical procedure that induces neuropathic pain in one paw. Male Sprague Dawley rats were purchased from Charles River (Portage, Mich.). Prior to surgery, animals were housed in groups and maintained in a temperature-regulated environment. Following nerve ligation surgery, animals were housed in groups, and had access to food and water ad libitum.
# The L5 and L6 spinal nerves of anesthetized rats were tightly ligated in a manner described previously (see Kim and Chung, Pain (1992) vol. 50 pp. 355-363). An incision was made on the dorsal portion of the hip and the muscle was blunt-dissected to reveal the spinal processes. The L6 transverse process was removed, and the left side L5 and L6 spinal nerves were tightly ligated with 5.0 braided silk suture. The wound was cleaned, the membrane sewn with 4.0 dissolvable Vicryl suture and the skin closed with wound clips. The paw affected by the surgical procedure (the left paw) develops an allodynic response, a hypersensitivity to mechanical and other stimuli; neuropathic pain is assessed as an increased sensitivity in the surgically affected (left) allodynic paw compared to the control paw on the right side, and measured by comparing the response of the (left side) allodynic paw to the response of the unaffected right side control paw.
# For the assessment of neuropathic pain, mechanical allodynia in the affected paw of animals that had undergone spinal nerve ligation was evaluated using testing with von Frey filaments. As described previously by S. R. Chaplan, et al (“Quantitative assessment of tactile allodynia in the rat paw” J. Neurosci. Meth. (1994) vol. 53 pp. 55-63), two weeks following surgery rats were acclimated to a testing box constructed of plexiglass with a wire mesh floor which allowed access to the plantar surface of the animal's hindpaws. Using an Up-Down method (Dixon, Annual Rev. Pharmacol. Toxicol. (1980) vol. 20, pp. 441-462; Chaplan et al. “Quantitative assessment of tactile allodynia in the rat paw” J. Neuroscience Methods (1994) vol. 53 pp. 55-63), von Frey filaments of increasing stiffness were applied to the plantar surface of the hindpaws and the withdrawal response of the animals was observed; for the surgically affected paw with neuropathic pain (the left side paw) the baseline level of allodynia has a withdrawal threshold of ≦4 g of pressure. By comparison, for the control paw without allodynia (in this case the right side paw), the typical withdrawal pressure is around 15 g. Representative compounds of the invention, administered intraperitoneally 30 minutes before testing, are able to reduce the symptoms of neuropathic pain and induce a dose-dependent increase in the withdrawal threshold for allodynic (left side) limb, up to a maximum effect of 15 g. The efficacy of the compound in reducing neuropathic pain at different doses is determined by comparing response in the surgery-affected paw versus the response in the control paw. This is expressed as the MPE (maximum percent effect), or 100 times the withdrawal threshold of the allodynic (left side) divided by the withdrawal threshold of the control (right side).
# histamine H4 receptor [2] = target: T1, histamine H4 receptor; test: 3H-histamine competition binding assay, membranes of transfected HEK-293 cells
# Protocol: In this assay, membranes were prepared from HEK-293 cells transiently transfected with the pCINeo expression vector harboring the histamine H4 receptor by homogenization of the cells on ice in TE buffer (50 mM Tris-HCl buffer, pH 7.4, containing 5 mM EDTA), 1 mM benzamidine, 2 μg/ml aprotinin, 1 μg/ml leupeptin, and 1 μg/ml pepstatin. The homogenate was centrifuged at 40,000 g for 20 minutes at 4° C. This step was repeated, and the resulting pellet was resuspended in TE buffer. Aliquots were frozen at −70° C. until needed. On the day of assay, membranes were thawed and diluted with TE buffer. Competition radioligand binding assays were performed with increasing concentrations of test compound in the presence of [^3H]-histamine incubated at 25° C. for 1 h in a total volume of 0.5 ml of 50 mM Tris, 5 mM EDTA, pH 7.4. All binding reactions were terminated by filtration under vacuum onto polyethylenimine (0.3%) presoaked Unifilters (PerkinElmer Life Sciences) or Whatman GF/B filters (Whatman, Clifton, N.J.) followed by three brief washes with 4 ml of ice-cold TE buffer. Bound radiolabel was determined by liquid scintillation counting. For all of the radioligand competition binding assays, IC50 values and Hill slopes were determined by Hill transformation of the data and Ki values were determined by the Cheng-Prusoff equation.
# osteoarthritis pain = test: MIA-induced knee joint osteoarthritis model, hind limb grip force; type: in vivo, rat; conditions: 100 micromole/kg i.p.; grip force 20 days after MIA; % return to normalcy vs naïve group
# Protocol: Unilateral knee joint osteoarthritis was induced in rats by a single intra-articular (i.a.) injection of sodium monoiodoacetate (MIA) (Sigma-Aldrich, St. Louis, Mo.) (3 mg in 50 ul sterile isotonic saline) into the right knee joint cavity under light (1-3%) isoflurane anesthesia.
# Pain behavior was assessed by measurement of hind limb grip force (GF) in adult osteoarthritic rats. Following the unilateral injection of MIA (male Sprague Dawley, 325-350 g, tested at 20 days following MIA injection), a behavioral measure of activity-induced pain was carried out. Measurements of the peak hind limb grip force were conducted by recording the maximum compressive force (CFmax), in grams of force, exerted on a hind limb strain gauge setup, in a commercially available grip force measurement system (Columbus Instruments, Columbus, Ohio).
# During testing, each rat was gently restrained by grasping it around its rib cage and then allowed to grasp the wire mesh frame attached to the strain gauge. The experimenter then moved the animal in a rostral-to-caudal direction until the grip was broken. Each rat was sequentially tested twice at approximately 2-3 min interval to obtain a raw mean grip force (CFmax). This raw mean grip force data was in turn converted to a maximum hindlimb cumulative compressive force (CFmax), as the grams of force/kg of body weight, for each animal.
# For evaluating the compound effects, the hind limb grip force was conducted 20 days following the intra-articular injection of MIA. A group of age-matched naïve (not injected with MIA) animals was added as a comparator to the drug-dosed groups. The vehicle control response for each group of MIA-treated animals was defined as the 0% response (0% effect), whereas the naïve control group was defined as the normal response and as 100% effect. The % effects for each dose group was expressed as % return of response to normalcy, compared to the naïve group. That is, the % effect=(Treatment CFmax−Vehicle CFmax)/[…]]×100). All experiments evaluating drug effects in this model were conducted in a randomized blinded fashion.
# [3] = system: mechanical allodynia after skin incision; test: Surgical skin incision model, mechanical allodynia by von Frey hair; type: in vivo, rat
# Protocol: This is a surgical skin incision model (Joshi, et al. Pain 123 (2006) 75-82). Animals (rats) were prepared for testing by subjecting them to a surgical procedure carried out under sterile conditions, where the plantaris muscle was elevated and incised longitudinally with the origin and insertion of the muscle remaining intact. The skin was then closed with two mattress sutures (e.g. 5-0 nylon sutures). After surgery, animals were allowed to recover on a warming plate and housed individually in cages with soft bedding. […] Animals were tested for mechanical allodynia using von Frey hair mechanical stimulation 2, 24, and 48 h after surgery as described for the Chung model.
# thermal hyperalgesia = test: Complete Freund's adjuvant-induced thermal hyperalgesia; type: in vivo, rat; conditions: 30 minutes before testing, 48 hours after CFA, thermal stimulus
# Protocol: To assess the effectiveness of representative compounds of the invention against hyperalgesia, animals were tested in an acute model of adjuvant-induced thermal hyperalgesia (see for example, Honore, et al. Behavioural Brain Research 167 (2006) 355-364; Carroll, et al. US Patent application US 2006/0025614A 1). To prepare animals for the model, a solution of Complete Freund's adjuvant (150 microliters of a 50% aqueous solution, Sigma Chemical Company, St. Louis, Mo.) was injected into the plantar surface of test paw of the animal (rat). Rats so injected develop a hyperalgesia to thermal stimulation which is assessed 48 hours after injection of the Complete Freund's adjuvant using a commercially available paw thermal stimulator (UARDG, Dept. of Anesthesiology, Univ. California at San Diego, La Jolla, Calif.). For testing, rats were placed individually in a so-called ‘hot box’ (i.e. Plexiglass cubicles mounted on a glass surface) maintained at 30° C., and allowed a 30 minute habituation period. A thermal stimulus, in the form of radiant heat emitted from a focused projection bulb, was then applied to the plantar surface of each hind paw. The stimulus current was maintained (e.g. at 4.5 Amp) and the time of exposure set to limit the extent of possible tissue damage (e.g. maximum of 20 seconds exposure to thermal heating from the projection bulb). The time (in seconds) for the withdrawal of the paw that was injected with the Complete Freund's adjuvant (CFA) and subjected to the thermal stimulus was recorded, and this was compared to the time (in seconds) for withdrawal of the uninjected paw subjected to the same thermal stimulus. […] To test the effect of a compound on the hyperalgesia, the test compound is dissolved in a vehicle (e.g. water or saline) and administered by i.p. (intraperitoneal) injection 30 minutes before the testing of the animal's response to the thermal stimulus to the paws. The antihyperalgesic activity of the compound in blocking the pain is shown by an increase in the time to withdraw the CFA-injected paw subjected to thermal stimulus. Experiments are done with single-dose and escalating-dosages of the test compound, and dose response curves constructed to determine ED50 values.
# [4] = displacement of [3H]-histamine, 25° C., 1 h, read-out: Potency in Competition Binding Assay
# T1 sequence (Q9H3N8 whole entry, species assumed): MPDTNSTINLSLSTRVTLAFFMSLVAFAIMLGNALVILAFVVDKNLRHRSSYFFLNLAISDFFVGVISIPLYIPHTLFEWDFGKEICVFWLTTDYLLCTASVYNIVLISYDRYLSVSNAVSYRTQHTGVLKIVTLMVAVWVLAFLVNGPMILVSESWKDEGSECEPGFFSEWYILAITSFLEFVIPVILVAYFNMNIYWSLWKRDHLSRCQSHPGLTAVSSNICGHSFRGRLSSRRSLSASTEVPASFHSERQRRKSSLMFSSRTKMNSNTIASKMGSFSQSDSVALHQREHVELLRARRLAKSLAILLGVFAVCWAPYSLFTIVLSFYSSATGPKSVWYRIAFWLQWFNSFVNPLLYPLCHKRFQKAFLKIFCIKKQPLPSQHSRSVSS
structure (smiles),measurement,setting,value
"Nc1nc2c(c(N3CCNCC3)n1)CCCc1ccccc1-2 [Example 5, 4-piperazin-1-yl-6,7-dihydro-5H-benzo[6,7]cyclohepta[1,2-d]pyrimidin-2-ylamine]",MPE,inflammatory pain; 100 micromole/kg i.p.,23%
same,Potency in the FLIPR assay,histamine H4 receptor [1],15 nM
same,MPE,neuropathic pain,28%
same,Ki,histamine H4 receptor [2]; [4],80 nM
"O=S(=O)(NCCc1c[nH]cn1)NCc1ccc(Cl)c(Cl)c1 [Example 7, Sulfamide, N-[(3,4-dichlorophenyl)methyl]-N′-[2-(1H-imidazol-4-yl)ethyl]-]",MPE,inflammatory pain; 3 micromole/kg i.p.,33%
same,MPE,inflammatory pain; 10 micromole/kg i.p.,42%
same,MPE,inflammatory pain; 30 micromole/kg i.p.,93%
same,% Effect,osteoarthritis pain,22%
same,Potency in the FLIPR assay,histamine H4 receptor [1],34 nM
same,Ki,histamine H4 receptor [2],33 nM
same,MPE,[3]; 3 micromole/kg i.p.,33%
same,MPE,[3]; 10 micromole/kg i.p.,50%
"Nc1nc2c(c(N3CC[C@@H](N)C3)n1)CCCc1ccccc1-2 [Example 4, 4-((3R)-3-Amino-pyrrolidin-1-yl)-6,7-dihydro-5H-benzo[6,7]cyclohepta[1,2-d]pyrimidin-2-ylamine]",MPE,inflammatory pain; 100 micromole/kg i.p.,68%
same,MPE,neuropathic pain,47%
"CN1CCN(c2cc(-c3cccnc3)nc(N)n2)CC1.O=C(O)/C=C\C(=O)O [Example 2, 4-(4-Methylpiperazin-1-yl)-6-(pyridin-3-yl)pyrimidin-2-amine, maleate]",melting point,,175 to 178 °C (dec.)
same,Potency in the FLIPR assay,histamine H4 receptor [1],200 nM
same,Ki,histamine H4 receptor [2]; [4],178 nM
same,MPE,thermal hyperalgesia; 30 micromole/kg i.p.,51%
same,MPE,thermal hyperalgesia; 100 micromole/kg i.p.,83%
